Source: ChEMBL document CHEMBL4831562, “Discovery of Imidazole-Based Inhibitors of Plasmodium falciparum cGMP-Dependent Protein Kinase” (ACS Med Chem Lett, 2021)
Converted amounts (≈) assume the structure as drawn. Blank lines part the entries; values can stand above or below the molecule they belong to.

Tests used:
Plasmodium falciparum [1] = assay: Inhibition of Plasmodium falciparum PKG using FAM-labeled PKAtide or IP3R-derived peptide as a substrate at 1 uM preincubated for 15 mins followed by substrate addition and incubated for 60 mins by IMAP assay relative to control; conditions: time 75.0 min
Plasmodium cynomolgi [2] = assay: Antiplasmodial activity against liver stage Plasmodium cynomolgi B infected in non-human primate hepatocytes assessed as reduction in liver hypnozoites development incubated for 4 days starting on day 4 post-sporozoite inoculation by […] cure mode analysis; type: functional, organism-based; conditions: Hepatocyte, 96 h
Plasmodium cynomolgi [3] = assay: Antiplasmodial activity against liver stage Plasmodium cynomolgi B infected in non-human primate hepatocytes assessed as inhibition of hypnozoite development incubated for 4 days from sporozoite addition by prophylactic assay; type: functional, organism-based; conditions: Hepatocyte, 96 h
Plasmodium cynomolgi [4] = assay: Antiplasmodial activity against liver stage Plasmodium cynomolgi B infected in non-human primate hepatocytes assessed as reduction in liver schizonts development incubated for 4 days starting on day 4 post-sporozoite inoculation by […] cure mode analysis; type: functional, organism-based; conditions: Hepatocyte, 96 h
[5] = Toxicity against non-human primate hepatocytes infected with liver stage Plasmodium cynomolgi B incubated for 4 days from sporozoite addition; type: ADME, tissue-based, Hepatocyte; conditions: primates, 96 h, time 4 day
Plasmodium cynomolgi [6] = assay: Antiplasmodial activity against liver stage Plasmodium cynomolgi B infected in non-human primate hepatocytes assessed as inhibition of liver schizonts development incubated for 4 days from sporozoite addition by prophylactic assay; type: functional, organism-based; conditions: Hepatocyte, 96 h
[7] = Toxicity against non-human primate hepatocytes infected with liver stage Plasmodium cynomolgi B incubated for 4 days starting on day 4 post-sporozoite inoculation; type: ADME, tissue-based, Hepatocyte; conditions: primates, 96 h, time 4 day
[8] = Inhibition of Plasmodium falciparum PKG using FAM-labeled PKAtide or IP3R-derived peptide as a substrate preincubated for 15 mins followed by substrate addition and incubated for 60 mins by IMAP assay
[9] = Inhibition of Plasmodium falciparum PKG
Plasmodium berghei [10] = assay: (§1) Antiplasmodial activity against luciferase expressing Plasmodium berghei sporozoites infected in HepG2 cells assessed as decrease in parasite infection at 2 uM incubated for 16 hrs followed by replacement with compound free medium and measured after 48 hrs post infection by IVIS spectrum in vivo imaging analysis relative to control; type: functional; conditions: read-out: INH
Plasmodium falciparum [11] = assay: Antiplasmodial activity against asexual blood stage Plasmodium falciparum 3D7; type: functional, organism-based
Plasmodium berghei [12] = assay: as §1, with “berghei hepatic stage” for “berghei”, “infection” for “infection at 2 uM”, “medium” for “medium and”, “analysis” for “analysis relative to control”; type: functional, organism-based
Plasmodium berghei [13] = assay: as §1, with “at 10” for “at 2”, “medium” for “medium and”; type: functional; conditions: read-out: INH
[14] = Metabolic stability in human liver microsomes assessed as half life incubated for 60 mins in the presence of NADPH by LC-MS/MS analysis; type: ADME, Microsome
Homo sapiens = species on record: Homo sapiens; assay: Inhibition of human PKG using FAM-labeled PKAtide or IP3R-derived peptide as a substrate at 10 uM preincubated for 15 mins followed by substrate addition and incubated for 60 mins by IMAP assay relative to control; conditions: time 75.0 min
[15] = Metabolic stability in mouse liver microsomes assessed as half life incubated for 60 mins in the presence of NADPH by LC-MS/MS analysis; type: ADME, Microsome
[16] = Kinetic aqueous solubility of the compound at pH 7.4 measured after 1 hr by UV/LC-MS/MS analysis; type: physicochemical; conditions: buffer, read-out: Kinetic_solubility
[17] = system: cGMP-dependent protein kinase (Plasmodium falciparum), W7JX98 [T618Q]; assay: Inhibition of Plasmodium falciparum PKG T618Q mutant using FAM-labeled PKAtide or IP3R-derived peptide as a substrate at 10 uM preincubated for 15 mins followed by substrate addition and incubated for 60 mins by IMAP assay relative to control; conditions: time 75.0 min
Sequence of cGMP-dependent protein kinase (Plasmodium falciparum), W7JX98 [T618Q] (W7JX98 whole entry T618Q): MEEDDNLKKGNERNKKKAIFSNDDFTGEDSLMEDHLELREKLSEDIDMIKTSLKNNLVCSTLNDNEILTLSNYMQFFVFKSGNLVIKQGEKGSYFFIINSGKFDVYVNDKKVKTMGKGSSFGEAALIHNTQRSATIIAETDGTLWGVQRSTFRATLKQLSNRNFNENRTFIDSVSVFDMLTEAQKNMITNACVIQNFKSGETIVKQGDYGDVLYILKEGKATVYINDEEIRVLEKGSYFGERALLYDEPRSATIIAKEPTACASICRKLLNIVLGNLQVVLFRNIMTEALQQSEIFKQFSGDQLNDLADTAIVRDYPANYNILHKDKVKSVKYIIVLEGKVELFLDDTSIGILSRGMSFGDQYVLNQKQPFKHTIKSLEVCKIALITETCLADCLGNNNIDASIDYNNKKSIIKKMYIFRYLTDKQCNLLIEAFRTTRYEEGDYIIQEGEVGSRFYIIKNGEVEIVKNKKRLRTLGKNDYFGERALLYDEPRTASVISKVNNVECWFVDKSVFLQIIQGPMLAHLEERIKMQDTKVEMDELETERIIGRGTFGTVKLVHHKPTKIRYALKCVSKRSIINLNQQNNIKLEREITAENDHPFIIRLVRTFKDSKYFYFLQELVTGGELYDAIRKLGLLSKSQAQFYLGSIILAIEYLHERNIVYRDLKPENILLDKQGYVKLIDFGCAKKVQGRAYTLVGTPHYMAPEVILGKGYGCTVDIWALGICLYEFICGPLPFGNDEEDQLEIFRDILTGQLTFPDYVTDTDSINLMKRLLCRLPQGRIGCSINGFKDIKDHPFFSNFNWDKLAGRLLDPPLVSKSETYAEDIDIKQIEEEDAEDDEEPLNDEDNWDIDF

Cytochrome P450 3A4 = Cytochrome P450 3A4 (Homo sapiens, UniProt P08684); assay: Inhibition of human CYP3A4 using testosterone as a substrate by LC/MS/MS analysis; type: ADME
Sequence of Cytochrome P450 3A4 (P08684 whole entry): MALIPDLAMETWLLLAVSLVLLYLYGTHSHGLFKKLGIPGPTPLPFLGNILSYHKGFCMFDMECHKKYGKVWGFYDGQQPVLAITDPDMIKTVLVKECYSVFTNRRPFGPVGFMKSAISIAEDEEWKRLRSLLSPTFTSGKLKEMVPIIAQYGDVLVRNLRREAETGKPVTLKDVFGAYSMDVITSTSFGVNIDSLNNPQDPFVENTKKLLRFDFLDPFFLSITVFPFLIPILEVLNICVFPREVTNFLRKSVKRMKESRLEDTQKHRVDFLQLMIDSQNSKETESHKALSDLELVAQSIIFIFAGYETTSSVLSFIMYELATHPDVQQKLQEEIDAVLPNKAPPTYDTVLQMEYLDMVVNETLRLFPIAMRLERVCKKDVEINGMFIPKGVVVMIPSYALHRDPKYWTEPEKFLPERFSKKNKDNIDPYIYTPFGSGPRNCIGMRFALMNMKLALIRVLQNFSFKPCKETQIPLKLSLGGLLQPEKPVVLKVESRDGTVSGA

Cytochrome P450 2D6 = Cytochrome P450 2D6 (Homo sapiens, UniProt P10635); assay: Inhibition of human CYP2D6 using 3-[2-(N,N-diethylamino)ethyl]-7-methoxy-4-methyl coumarin as a substrate incubated for 45 mins by fluorescence based analysis; type: ADME
Sequence of Cytochrome P450 2D6 (P10635 whole entry): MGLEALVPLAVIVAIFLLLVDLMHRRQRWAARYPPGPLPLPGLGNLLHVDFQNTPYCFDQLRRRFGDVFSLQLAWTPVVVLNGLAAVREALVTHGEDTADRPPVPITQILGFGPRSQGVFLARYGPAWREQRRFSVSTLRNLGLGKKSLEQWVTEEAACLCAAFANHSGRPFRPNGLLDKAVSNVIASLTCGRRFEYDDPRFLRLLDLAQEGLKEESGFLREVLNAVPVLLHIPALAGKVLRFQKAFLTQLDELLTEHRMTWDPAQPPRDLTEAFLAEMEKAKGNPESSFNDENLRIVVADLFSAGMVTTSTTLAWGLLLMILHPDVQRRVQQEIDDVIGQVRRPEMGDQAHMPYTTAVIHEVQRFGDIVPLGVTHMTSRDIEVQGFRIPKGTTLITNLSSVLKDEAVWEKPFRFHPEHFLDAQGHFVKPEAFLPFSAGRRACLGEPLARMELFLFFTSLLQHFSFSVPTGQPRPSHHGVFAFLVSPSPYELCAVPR

Cytochrome P450 2C9 = Cytochrome P450 2C9 (Homo sapiens, UniProt P11712); assay: Inhibition of human CYP2C9 using 7-methoxy-4(trifluoromethyl coumarin) as a substrate incubated for 15 mins by fluorescence based analysis; type: ADME
Sequence of Cytochrome P450 2C9 (P11712 whole entry): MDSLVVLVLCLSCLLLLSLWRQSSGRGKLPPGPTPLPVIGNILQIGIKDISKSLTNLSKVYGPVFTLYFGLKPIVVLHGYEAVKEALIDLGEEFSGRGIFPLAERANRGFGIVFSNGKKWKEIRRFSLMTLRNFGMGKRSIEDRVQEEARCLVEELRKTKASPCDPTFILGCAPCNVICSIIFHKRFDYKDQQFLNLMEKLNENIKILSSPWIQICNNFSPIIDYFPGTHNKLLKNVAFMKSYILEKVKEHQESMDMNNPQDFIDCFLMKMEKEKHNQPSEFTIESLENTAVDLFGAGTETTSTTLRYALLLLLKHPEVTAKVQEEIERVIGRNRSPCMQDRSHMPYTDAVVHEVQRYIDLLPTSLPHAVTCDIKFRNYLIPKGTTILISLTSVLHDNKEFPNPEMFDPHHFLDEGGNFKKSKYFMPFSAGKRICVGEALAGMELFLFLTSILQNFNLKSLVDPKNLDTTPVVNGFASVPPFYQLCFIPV

SMILES: CO[C@@H]1[C@@H](OC)[C@H](C)C(O)(CC(=O)O)O[C@H]1[C@H](C)[C@H]1O[C@@]2(CC[C@@](C)([C@H]3CC[C@@](C)([C@@H]4O[C@@H]([C@H]5OC(C)(O)[C@H](C)C[C@@H]5C)C[C@@H]4O[C@@H]4C[C@H](OC)[C@@H](OC)[C@H](C)O4)O3)O2)C[C@H](O)[C@H]1C (stereo partly drawn)
IC50 (Plasmodium cynomolgi [2]): 30 nM
IC50 (Plasmodium cynomolgi [3]): 20 nM
IC50 (Plasmodium cynomolgi [4]): 30 nM
Activity [5]: 5.78 µM
IC50 (Plasmodium cynomolgi [6]): 10 nM
Activity [7]: 11.91 µM

SMILES: CCN(CC)Cc1onc(-c2cccc(Cl)c2)c1-c1ccnc(N[C@@H]2CCN(C(=O)c3ccsn3)C2)n1
IC50 [9]: 17 nM
percent decrease in parasite infection in HepG2 cells at 2 µM (Plasmodium berghei [10]): 0%

SMILES: CN1CCC(c2cc(-c3ccc(F)cc3)c(-c3ccncc3)[nH]2)CC1
IC50 [8]: 22 nM
EC50 (Plasmodium falciparum [11]): 150 nM
EC50 (Plasmodium berghei [12]): 300 nM
IC50 [9]: 20 nM
percent decrease in parasite infection in HepG2 cells at 2 µM (Plasmodium berghei [10]): 91%
percent inhibition of parasite infection at 10 µM (Plasmodium berghei [13]): 94%

SMILES: CCN(CC)Cc1onc(-c2cccc(Cl)c2)c1-c1ccnc(N[C@@H]2CCN(C(=O)c3ccon3)C2)n1
IC50 [9]: 13 nM
percent decrease in parasite infection in HepG2 cells at 2 µM (Plasmodium berghei [10]): 52%

SMILES: Cc1cn(-c2ccnc(N[C@@H]3CCN(C(=O)c4nccs4)C3)n2)c(-c2ccccc2)n1
IC50 [8]: 320 nM
half-life [14]: < 2 min
IC50 (Plasmodium cynomolgi [2]): > 20000 nM
inhibition (Homo sapiens): 3%
half-life [15]: < 2 min
IC50 (Plasmodium cynomolgi [3]): > 20000 nM
percent decrease in parasite infection in HepG2 cells at 2 µM (Plasmodium berghei [10]): 78%
IC50 (Plasmodium cynomolgi [4]): 11600 nM
percent inhibition of parasite infection at 10 µM (Plasmodium berghei [13]): 89%
Activity [5]: > 20 µM
IC50 (Plasmodium cynomolgi [6]): 7910 nM
solubility kinetic at 1 h [16]: 200 µM (≈ 86.3 µg/mL)
inhibition [17]: 3%
Activity [7]: > 20 µM

SMILES: Cc1cn(-c2ccnc(N[C@@H]3CCN(C(=O)c4nccs4)C3)n2)c(-c2ccc(Cl)cc2)n1
IC50 [8]: 1160 nM

SMILES: COc1cc(C)c2c(Oc3cccc(C(F)(F)F)c3)c(OC)cc(NC(C)CCCN)c2n1 (stereo not drawn) [TAFENOQUINE]
IC50 (Plasmodium cynomolgi [2]): 3500 nM
IC50 (Plasmodium cynomolgi [3]): 140 nM
IC50 (Plasmodium cynomolgi [4]): 3610 nM
Activity [5]: 13.82 µM
IC50 (Plasmodium cynomolgi [6]): 190 nM
Activity [7]: 18.61 µM

SMILES: O=C(c1nccs1)N1CC[C@@H](Nc2nccc(-n3cc(C4CC4)nc3-c3ccccc3)n2)C1
IC50 (Cytochrome P450 3A4): 290 nM
IC50 [8]: 100 nM
IC50 (Cytochrome P450 2D6): > 10000 nM
half-life [14]: 4.8 min
half-life [15]: < 2 min
EC50 (Plasmodium falciparum [11]): 7600 nM
EC50 (Plasmodium berghei [12]): 20000 nM
IC50 (Cytochrome P450 2C9): > 10000 nM
solubility kinetic at 1 h [16]: 92 µM (≈ 42.1 µg/mL)

SMILES: O=C(c1nccs1)N1CC[C@@H](Nc2nccc(-n3cc(C4CC4)nc3-c3cccc(Cl)c3)n2)C1
IC50 (Cytochrome P450 3A4): 190 nM
IC50 [8]: 60 nM
IC50 (Cytochrome P450 2D6): > 10000 nM
half-life [14]: 3.7 min
IC50 (Plasmodium cynomolgi [2]): > 20000 nM
half-life [15]: < 2 min
EC50 (Plasmodium falciparum [11]): 3300 nM
EC50 (Plasmodium berghei [12]): 5700 nM
IC50 (Plasmodium cynomolgi [3]): 9880 nM
IC50 (Cytochrome P450 2C9): 2800 nM
percent decrease in parasite infection in HepG2 cells at 2 µM (Plasmodium berghei [10]): 94%
IC50 (Plasmodium cynomolgi [4]): 4620 nM
percent inhibition of parasite infection at 10 µM (Plasmodium berghei [13]): 93%
Activity [5]: > 20 µM
IC50 (Plasmodium cynomolgi [6]): 930 nM
solubility kinetic at 1 h [16]: 28 µM (≈ 13.8 µg/mL)
Activity [7]: > 20 µM

Results, then the molecule that gave them:

inhibition (Plasmodium falciparum [1]): 2%
SMILES: Cc1cn(-c2ccnc(NCC3CCN3C(=O)c3nccs3)n2)c(-c2ccccc2)n1 (stereo not drawn)

IC50 [8]: 150 nM
SMILES: Cc1cn(-c2ccnc(N[C@@H]3CCN(C(=O)c4nccs4)C3)n2)c(-c2cccc(OC(F)(F)F)c2)n1

inhibition (Plasmodium falciparum [1]): 5%
SMILES: Cc1cn(-c2ccnc(NC3CCN(C(=O)c4nccs4)CC3)n2)c(-c2ccccc2)n1

inhibition (Plasmodium falciparum [1]): 47%
SMILES: Cc1cn(-c2ccnc(N[C@@H]3CCN(C(=O)c4nccs4)C3)n2)c(-c2ccccc2Cl)n1

inhibition (Plasmodium falciparum [1]): 4%
SMILES: Cc1cn(-c2ccnc(N[C@H]3CCN(C(=O)c4nccs4)C3)n2)c(-c2ccccc2)n1

IC50 [8]: 86 nM
SMILES: COc1cccc(-c2nc(C)cn2-c2ccnc(N[C@@H]3CCN(C(=O)c4nccs4)C3)n2)c1

inhibition (Plasmodium falciparum [1]): 6%
SMILES: Cc1cn(-c2ccnc(NCC3(NC(=O)c4nccs4)CC3)n2)c(-c2ccccc2)n1

IC50 [8]: 1000 nM
SMILES: Cc1cn(-c2ccnc(N[C@@H]3CCN(C(=O)c4ccn(C)n4)C3)n2)c(-c2ccccc2)n1

inhibition (Plasmodium falciparum [1]): 3%
SMILES: Cc1cn(-c2ccnc(NCC3CCCN3C(=O)c3nccs3)n2)c(-c2ccccc2)n1 (stereo not drawn)

inhibition (Plasmodium falciparum [1]): 4%
SMILES: Cc1cn(-c2ccnc(NC3CCCN(C(=O)c4nccs4)C3)n2)c(-c2ccccc2)n1 (stereo not drawn)
